In one test the target is T1, GFP-SHPRH (Homo sapiens, UniProt Q149N8).
T1 construct: expressed in transfected cells; host or cells: SW480
Nature of the test: MST ligand-binding assay, GFP-SHPRH in SW480 cell lysates. As to conditions: 25° C., 4 replicates.

The target in a further test is T2, free GFP (Aequorea victoria, UniProt P42212).
T2 construct: expressed in transfected cells; host or cells: SW480
Nature of the test: MST ligand-binding assay, free GFP negative control. As to conditions: SW480 cell lysates, negative controls, two parallels. The method, then: Ten million SW480 cells overexpressing GFP-tagged SHPRH or free GFP were lysed in 1 mL radioimmunoprecipitation assay (RIPA) buffer. Cell lysates were diluted in buffer A [50 mM Hepes buffer (pH 7.5), 5 mM DTT, 10 mM CaCl2), 50 mM NaCl, and 0.05% Tween-20] to a final concentration at which the fluorescent signals of the GFP proteins were similar and well above the detection limit of the Monolith NT.115 instrument (NanoTemper Technologies GmbH). Ten microliters of each receptor were mixed with 10 μL of the ligand at various concentrations from 100 μM to 3.05 nM. Specifically, the ligand (4 mM in 100% DMSO) was diluted 1:20 to a final concentration of 200 μM in buffer A (giving 5% DMSO). Ten microliters of the 200 μM ligand solution was further serially diluted 1:1 in 10 μL of buffer A supplemented with 5% DMSO to make a 16-sample dilution series down to 6.1 nM. Ten microliters of the cell lysate were added to 10 μL of each ligand solution. […] The fluorescence signal during the thermophoresis was monitored for 30 s, and the change in fluorescence was analyzed as thermophoresis with T-jump. The Kd was calculated by fitting a standard binding curve to the average of four independent dilution series.

In test [1] the test system is Apc (VilCre^ER Apc^fl/fl) intestinal organoids. Description: Apc mutant intestinal organoid culture. In kind it is cell-based, mouse. As to conditions: 7 days. An excerpt:
Mouse intestinal Apc (VilCre^ER Apc^fl/fl) organoids were obtained from Owen J. Sansom's laboratory at the Beatson Institute for Cancer Research, Glasgow, UK. The culture protocol has been described previously (14). Briefly, Apc mutant organoids were suspended in Growth Factor Reduced Matrigel (catalog no. 356231; Corning) and cultured in Advanced DMEM/F12 (catalog no. 12634-028; Invitrogen) containing 1% B-27 supplement (50×), minus vitamin A (catalog no. 12587-010; Invitrogen) and 0.1% BSA. Organoids were seeded in 24-well plates at a density of 70-100 organoids/50 μL Matrigel in each well. […] One week later organoids were imaged using the Cytation 5 Cell Imaging Multi-Mode Reader (BioTek Instruments, Inc.).

The target in a further test is T3, SHPRH (Homo sapiens, UniProt Q149N8).
T3 construct: endogenous in cells; host or cells: SW480
T3 sequence (Q149N8 whole entry): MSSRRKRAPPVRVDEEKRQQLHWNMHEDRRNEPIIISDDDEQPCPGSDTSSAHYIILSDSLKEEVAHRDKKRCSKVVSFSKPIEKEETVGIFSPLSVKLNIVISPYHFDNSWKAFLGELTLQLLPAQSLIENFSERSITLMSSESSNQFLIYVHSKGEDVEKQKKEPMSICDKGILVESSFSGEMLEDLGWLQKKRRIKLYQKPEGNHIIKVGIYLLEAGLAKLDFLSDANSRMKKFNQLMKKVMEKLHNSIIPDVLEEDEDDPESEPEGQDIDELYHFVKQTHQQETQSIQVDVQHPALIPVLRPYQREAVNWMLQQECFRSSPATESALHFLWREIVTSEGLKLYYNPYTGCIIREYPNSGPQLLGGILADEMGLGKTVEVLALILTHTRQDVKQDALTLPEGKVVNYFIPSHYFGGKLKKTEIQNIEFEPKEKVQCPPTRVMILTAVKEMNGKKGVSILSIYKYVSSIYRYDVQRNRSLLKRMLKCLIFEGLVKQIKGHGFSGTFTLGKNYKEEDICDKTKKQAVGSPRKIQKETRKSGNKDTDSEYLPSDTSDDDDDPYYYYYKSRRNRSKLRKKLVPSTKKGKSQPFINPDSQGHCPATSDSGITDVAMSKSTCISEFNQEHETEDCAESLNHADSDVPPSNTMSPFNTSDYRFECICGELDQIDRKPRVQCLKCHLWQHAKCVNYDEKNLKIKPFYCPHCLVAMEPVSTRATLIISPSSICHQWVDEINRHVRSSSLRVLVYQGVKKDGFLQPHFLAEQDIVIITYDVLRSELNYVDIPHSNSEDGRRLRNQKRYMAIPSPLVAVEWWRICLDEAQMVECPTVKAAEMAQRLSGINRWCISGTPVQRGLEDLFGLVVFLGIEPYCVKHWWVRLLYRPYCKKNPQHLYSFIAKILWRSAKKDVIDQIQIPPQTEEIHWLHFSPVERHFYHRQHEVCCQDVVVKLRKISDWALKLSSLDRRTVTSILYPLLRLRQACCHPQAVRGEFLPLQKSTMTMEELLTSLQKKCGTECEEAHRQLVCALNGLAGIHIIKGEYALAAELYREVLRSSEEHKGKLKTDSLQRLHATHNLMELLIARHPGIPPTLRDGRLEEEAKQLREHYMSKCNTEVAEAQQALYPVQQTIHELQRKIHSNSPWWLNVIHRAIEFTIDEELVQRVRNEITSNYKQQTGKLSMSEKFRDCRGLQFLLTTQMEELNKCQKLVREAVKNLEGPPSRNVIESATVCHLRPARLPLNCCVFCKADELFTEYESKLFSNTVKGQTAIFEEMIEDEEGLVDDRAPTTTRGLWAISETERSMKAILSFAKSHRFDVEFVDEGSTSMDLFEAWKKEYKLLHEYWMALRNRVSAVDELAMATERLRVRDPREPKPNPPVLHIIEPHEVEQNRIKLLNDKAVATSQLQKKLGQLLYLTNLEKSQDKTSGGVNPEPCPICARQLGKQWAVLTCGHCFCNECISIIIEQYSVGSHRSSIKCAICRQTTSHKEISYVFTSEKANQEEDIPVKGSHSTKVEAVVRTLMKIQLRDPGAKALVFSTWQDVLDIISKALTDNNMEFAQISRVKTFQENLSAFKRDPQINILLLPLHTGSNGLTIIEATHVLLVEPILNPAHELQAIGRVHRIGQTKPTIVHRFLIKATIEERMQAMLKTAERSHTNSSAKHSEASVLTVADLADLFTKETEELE
Description: SHPRH stability and ubiquitination in SW480 cells (cycloheximide, MG132). In kind it is cell-based. As to conditions: SW480, 5 μM. An excerpt:
2D-DIGE images of the DARTS samples. […] Location of β-catenin binding motifs of indicated genes (left) and agarose gel analysis of ChIP-PCR reactions with indicated antibodies (right). d. Western blots of the CoIP samples of SW480 cells using indicated antibodies. e. […] WT, wild type; FL, full length. g. Overexpression of SHPRH in SW480 cells increases the ubiquitination level of β-catenin. h. […] Summary of the mechanisms by which axitinib blocks Wnt/β-catenin signaling.
Culture cells were lysed in RIPA buffer (50 mM Tris-HCl, pH 7.4, 150 mM NaCl, 1% NP-40, 0.5% sodium deoxycholate, 0.1% SDS, 1 mM EDTA) containing freshly added protease inhibitors (Roche, 11836153001). Protein lysates were resolved in Novex 10% BisTris MiniGels (Life technologies, NP0303BOX) and transferred onto PVDF membranes with Pierce 1-Step Transfer Buffer (Thermo Fisher Scientific, 84731). […] Proteins were visualized and captured by a ChemiDOC XRS system and Quantity One software (Bio-Rad Laboratories).
Cells were harvested and re-suspended with 100 μl ice cold TBS (50 mM Tris-HCL pH 8.0, 150 mM NaCl) containing 2 μM N-Ethylmaleimide crystalline that was supplemented to all the following buffers. […] Following addition of 80 μl 2% SDS sample buffer containing 10 mM DTT (Sigma, D9779), the beads were boiled at 98° C. for 5 minutes and collected with Magnet, the supernatant was analyzed by Western blotting.

One compound from patent publication US20180344715A1, “WNT/BETA-CATENIN SIGNAL TRANSDUCTION INHIBITORS AND THEIR USE IN TREATMENT OR PREVENTION OF DISEASES AND CONDITIONS LINKED WITH SAID TRANSDUCTION” (BERGEN TEKNOLOGIOVERFORING AS, priority 2015, published 2018) can be followed below.

Molecules are shown by their SMILES.

T1 sequence (Q149N8 whole entry): as above

Regarding `CNC(=O)c1ccccc1Sc1ccc2c(/C=C/c3ccccn3)n[nH]c2c1` [axitinib, N-Methyl-2-[[3-[(E)-2-pyridin-2-ylethenyl]-1H-indazol-6-yl]sulfanyl]benzamide], at GFP-SHPRH, the Kd (usually the equilibrium constant for the complex coming apart) amounted to 10.4 ± 3.3 µM. Moreover, the “binding of the ligand to free GFP” value on free GFP is listed as “did not show any binding”. Moreover, in test [1], the “growth of Apc-deleted murine organoids” value is “strongly inhibited”. For the same compound, at SHPRH (6 hours, with cycloheximide), the “stability of SHPRH” value is listed as “increased”. In addition, the “ubiquitination level of SHPRH” value at SHPRH (MG132, 6 hours) was “decreased”.
